# Laboratory results reported in patent publication US20260191999A1, “COMPOUNDS AND THEIR USE” (KING'S COLLEGE LONDON, priority 2022, published 2026).
# Assays:
# [1] = system: A549-WT and A549-KO-ALDH1A1 human lung cancer cells; experiment: Cell uptake of radiotracer, A549-WT vs A549-KO-ALDH1A1; format: cell-based; conditions: ALDH1A1 positive vs ALDH1A1 negative cell line
# Description: A549-KO-ALDH1A1 cells were obtained using an ALDH1A1 human gene knockout kit (Cat #KN400723) according to manufacturer's instructions (Origene, Rockville, MD, USA). Briefly, 3×10^5 A549 cells were seeded into a 6-well plate and maintained for 24 hours at 37° C., 5% CO2. Lipofectamine 3000 (Cat #L^3000, Invitrogen) was mixed with 1 μg of gRNA vector (pCas-guide) and 1 μg of donor template in Opti-MEM and added to cells for 16 hours. The next day, the transfection medium was removed and replaced with fresh medium. Forty-eight hours post-transfection, medium was replaced with fresh medium containing 0.5 μg/mL of puromycin (Cat #A1113803) which caused 100% cell death in non-transfected control cells after 5 days. Cells resistant to puromycin were subjected to clonal selection by the limiting dilution method. Knockout of protein was confirmed by western blots.
# (§1) For cell uptake studies SKOV3-ip1 and SKOV3-TRip2, A549-WT, A549-KO-ALDH1A1, HEK293-WT and HEK293-ALDH1A1 cells were plated in 6 well plates 24 h prior to the studies, as described above (Western Blotting). One mL of fresh media containing 0.37 MBq of PQM-H-001 and 6 KBq PQM-H-002 was added to each well for the desired incubation time. At 40 min, plates were placed on ice, washed three times with ice-cold PBS to remove exogenous radioactivity and lysed in RIPA buffer ([…]; Fisher Scientific Ltd).
# (§2) For all cell uptake and efflux study decay-corrected radioactivity in lysates was determined on a gamma counter ([…]; Wallac 1282 CompuGamma counter), with the remaining cell lysate centrifuged (21,000×g for 10 min at 4° C.) and the supernatant used to determine protein concentration following radioactive decay using a Pierce BCA assay. To quantify radiotracer uptake in cells, three standard solutions of the radioactivity-containing medium were counted on the gamma counter. Data were expressed as a percentage of total radioactivity administered to cells per mg of protein.
# The following compounds were profiled in A549-WT (positive ALDH1A1) and A549-KO-ALDH1A1 (negative for ALDH1A1) human lung cancer cells as well as HEK293-WT (negative for ALDH1A1) and HEK293-ALDH1A1 (positive for ALDH1A1) human embryonic kidney cells. The fold difference in radiotracer retention for the ALDH1A1 positive cell lines as compared to the ALDH1A1 negative cell lines for each compound is shown in Table 2.
# [2] = system: HEK293-ALDH1A1 and HEK293-WT human embryonic kidney cells; experiment: Cell uptake of radiotracer, HEK293-ALDH1A1 vs HEK293-WT; format: cell-based; conditions: ALDH1A1 positive vs ALDH1A1 negative cell line
# Description: HEK293 stably overexpressing ALDH1A1 were obtained by infecting cells with lentiviral particles containing the nucleotide sequences encoding for human ALDH1A1 (Origene RC200723L^4V LentiORF particles (mGFP-tagged)). Briefly, 1×10^4 HEK-293 cells were seeded into a 24-well plate and maintained for 24 hours at 37° C., 5% CO2. Cells were then infected with the lentiviral particles using a multiplicity of infection (MOI) of 10 in the presence of hexadimethrine bromide (6 μg/mL) (Sigma-Aldrich, St. Louis, MO, USA). The next day, medium was removed and replaced with fresh medium. At 36 h post-infection, medium was replaced with complete culture medium containing puromycin (1 μg/ml) which caused 100% cell death in non-transduced control cells after 5 days. Cells resistant to puromycin were subjected to clonal selection by the limiting dilution method. Overexpression of ALDH1A1 was confirmed by western blots and real-time PCR.
# as §1
# as §2, with “protein. […]” for “protein.”
# [3] = molecular target: T1, human recombinant ALDH1A1 (Homo sapiens, UniProt P00352); experiment: ALDH activity colorimetric assay (Biovision), ALDH1A1; format: biochemical; conditions: Table 1, class symbols
# T1 construct: purchased bio-techne
# T1 sequence (P00352 1-501): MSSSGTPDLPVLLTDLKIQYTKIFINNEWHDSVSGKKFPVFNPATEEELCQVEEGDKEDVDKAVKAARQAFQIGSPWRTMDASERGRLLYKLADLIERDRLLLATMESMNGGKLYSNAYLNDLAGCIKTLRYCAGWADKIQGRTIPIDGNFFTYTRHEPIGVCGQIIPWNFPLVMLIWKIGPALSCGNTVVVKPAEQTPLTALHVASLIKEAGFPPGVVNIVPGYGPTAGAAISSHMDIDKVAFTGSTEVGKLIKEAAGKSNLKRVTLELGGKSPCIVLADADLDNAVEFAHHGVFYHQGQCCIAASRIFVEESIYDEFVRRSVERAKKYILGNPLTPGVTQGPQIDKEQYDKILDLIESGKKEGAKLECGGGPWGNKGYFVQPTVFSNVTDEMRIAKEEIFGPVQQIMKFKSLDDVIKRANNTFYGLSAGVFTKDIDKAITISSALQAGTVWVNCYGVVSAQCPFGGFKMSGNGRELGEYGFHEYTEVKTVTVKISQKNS
# Description: ALDH substrate kinetics were measured using an ALDH activity colorimetric assay kit (Biovision) according to the manufacturer's instructions. 1 μg/well human recombinant ALDH1A1 (bio-techne), ALDH2 (abcam), or ALDH3A1 (ATGen Co., Ltd) were used. The assay was initiated by the addition of enzyme after all reagents were pre-warmed to 37° C. Plates were read in kinetic mode on a Multiskan FC plate reader (Thermo Scientific) at 450 nm over 40 min at 37° C.
# The in vitro potency of the cold, non-radioactive reference compound compared against two different ALDH isoforms, ALDH1A1 and ALDH2 (using the ALDH activity colorimetric assay Kit (Biovision)).
# Other reference compounds (PQM-C) were compared against ALDH1A1 (using the ALDH activity colorimetric assay Kit (Biovision)).
# [4] = system: SKOV3-TRip2 and SKOV3-ip1 cells; experiment: Cell uptake of radiotracer, drug-resistant vs drug-sensitive SKOV3 cells; format: cell-based, human
# Description: as §1, §2
# Next, the time-dependent uptake of the of the radiotracers PQM-H-001 ([^18F]PQM-H-001) and PQM-H-002 ([^125I]PQM-H-002) was profiled in drug-resistant SKOV3-Trip2 and drug-sensitive SKOV3-ip1 cell lines (Pereira, R., et al. 2019).
Structure (SMILES),IC50 [3],also measured
"CS(=O)(=O)N1CCN(C(=O)c2cnc3c([N+](=O)[O-])cc([125I])cc3c2-c2ccc(C3(C#N)CC3)cc2)CC1 [PQM-H-007, 1-(4-(6-(iodo-^125I)-3-(4-(methylsulfonyl)piperazine-1-carbonyl)-8-nitroquinolin-4-yl)phenyl)cyclopropane-1-carbonitrile]",,"fold difference in radiotracer retention, A549-WT vs A549-KO-ALDH1A1 [1]: 17 fold; fold difference in radiotracer retention, HEK293-ALDH1A1 vs. HEK293-WT [2]: 2 fold"
"CS(=O)(=O)N1CCN(C(=O)c2cnc3c([N+](=O)[O-])cc(I)cc3c2-c2ccc(C3(C#N)CC3)cc2)CC1 [PQM-C-007, 1-(4-(6-Iodo-3-(4-(methylsulfonyl)piperazine-1-carbonyl)-8-nitroquinolin-4-yl)phenyl)cyclopropane-1-carbonitrile]",10 to 100 nM,
"CS(=O)(=O)N1CCN(C(=O)c2cnc3ccccc3c2-c2ccc(C3(C#N)CC3)c(I)c2)CC1 [PQM-C-022, 1-(2-Iodo-4-(3-(4-(methylsulfonyl)piperazine-1-carbonyl)quinolin-4-yl)phenyl)cyclopropane-1-carbonitrile]",1000 to 10000 nM,
"CS(=O)(=O)N1CCN(C(=O)c2cnc3c([N+](=O)[O-])cc(F)cc3c2-c2ccc(C3(C#N)CC3)cc2)CC1 [PQM-C-006, 1-(4-(6-Fluoro-3-(4-(methylsulfonyl)piperazine-1-carbonyl)-8-nitroquinolin-4-yl)phenyl)cyclopropane-1-carbonitrile]",10 to 100 nM,
CS(=O)(=O)N1CCN(C(=O)c2cnc3ccccc3c2-c2ccc(C3(C#N)CC3)c(F)c2)CC1 [PQM-C-021],≤ 10 nM,
"CS(=O)(=O)N1CCN(C(=O)c2cnc3c(F)cccc3c2-c2ccc(C3(C#N)CC3)cc2)CC1 [PQM-C-016, 1-(4-(8-Fluoro-3-(4-(methylsulfonyl)piperazine-1-carbonyl)quinolin-4-yl)phenyl)cyclopropane-1-carbonitrile]",10 to 100 nM,
"CS(=O)(=O)N1CCN(C(=O)c2cnc3c(I)cccc3c2-c2ccc(C3(C#N)CC3)cc2)CC1 [PQM-C-017, 1-(4-(8-Iodo-3-(4-(methylsulfonyl)piperazine-1-carbonyl)quinolin-4-yl)phenyl)cyclopropane-1-carbonitrile]",10 to 100 nM,
"CS(=O)(=O)N1CCN(C(=O)c2cnc3ccc([125I])cc3c2-c2ccc(C3(C#N)CC3)cc2)CC1 [PQM-H-002, 1-(4-(6-(iodo-^125I)-3-(4-(methylsulfonyl)piperazine-1-carbonyl)quinolin-4-yl)phenyl)cyclopropane-1-carbonitrile]",,"Radiotracer retention, drug resistant versus drug-sensitive cells [4]: 200 times higher; fold difference in radiotracer retention, A549-WT vs A549-KO-ALDH1A1 [1]: 40 fold; fold difference in radiotracer retention, HEK293-ALDH1A1 vs. HEK293-WT [2]: 56 fold"
"CS(=O)(=O)N1CCN(C(=O)c2cnc3cc(I)ccc3c2-c2ccc(C3(C#N)CC3)cc2)CC1 [PQM-C-012, 1-(4-(7-Iodo-3-(4-(methylsulfonyl)piperazine-1-carbonyl)quinolin-4-yl)phenyl)cyclopropane-1-carbonitrile]",10 to 100 nM,
"CS(=O)(=O)N1CCN(C(=O)c2cnc3c([125I])cccc3c2-c2ccc(C3(C#N)CC3)cc2)CC1 [PQM-H-017, 1-(4-(8-(fluoro-^125I)-3-(4-(methylsulfonyl)piperazine-1-carbonyl)quinolin-4-yl)phenyl)cyclopropane-1-carbonitrile]",,"fold difference in radiotracer retention, A549-WT vs A549-KO-ALDH1A1 [1]: 16 fold; fold difference in radiotracer retention, HEK293-ALDH1A1 vs. HEK293-WT [2]: 6 fold"
"CS(=O)(=O)N1CCN(C(=O)c2cnc3ccccc3c2-c2ccc(C3(C#N)CC3)c([125I])c2)CC1 [PQM-H-022, 1-(2-(fluoro-^125I)-4-(3-(4-(methylsulfonyl)piperazine-1-carbonyl)quinolin-4-yl)phenyl)cyclopropane-1-carbonitrile]",,"fold difference in radiotracer retention, A549-WT vs A549-KO-ALDH1A1 [1]: 6 fold"
"CS(=O)(=O)N1CCN(C(=O)c2cnc3cc(F)ccc3c2-c2ccc(C3(C#N)CC3)cc2)CC1 [PQM-C-011, 1-(4-(7-Fluoro-3-(4-(methylsulfonyl)piperazine-1-carbonyl)quinolin-4-yl)phenyl)cyclopropane-1-carbonitrile]",10 to 100 nM,
"CS(=O)(=O)N1CCN(C(=O)c2cnc3ccccc3c2N2CCC(C#N)(c3ccc(I)cc3)CC2)CC1 [PQM-C-027, 4-(4-iodophenyl)-1-(3-(4-(methylsulfonyl)piperazine-1-carbonyl)quinolin-4-yl)piperidine-4-carbonitrile]",100 to 1000 nM,
"CS(=O)(=O)N1CCN(C(=O)c2cnc3ccccc3c2N2CCC(C#N)(c3ccc(F)cc3)CC2)CC1 [PQM-C-026, 4-(4-fluorophenyl)-1-(3-(4-(methylsulfonyl)piperazine-1-carbonyl)quinolin-4-yl)piperidine-4-carbonitrile]",≤ 10 nM,
